For assay [1], the target named is T1, PDGFRβ (N666Y) (Homo sapiens, UniProt P09619, N666Y).
T1 construct: Fibroblasts from affected individuals and healthy controls were obtained; endogenous in cells; host or cells: fibroblasts from OPDKD patients
Kind of assay: ELISA analysis of phosphorylated PDGFRβ in OPDKD patient fibroblasts. The assay is classed as cell-based. The protocol:
Fibroblasts from affected individuals and healthy controls were obtained. Transgenic HeLa cells were transduced with a murine retroviral vector containing the PDGFRβ (NM_002609.3) c.wt, c. 1996A>T (OPDKD) and c.1997A>G (a different activating mutation associated with severe Penttinen syndrome) variants.
In OPDKD, the affected parts of the body (corneas and skin, particular fingers and toes) are all exposed to variable temperatures. ^8 At a typical room temperature (20-22° C.) corneal temperatures lie around 32-34° and fall to around 30° C. as air temperatures reaches 0° C. ^9 We studied the effect of this physiological temperature difference on PDGFRβ auto-phosphorylation and signaling in OPDKD. Cells were either kept at 37° ° C. or incubated overnight at 32° C. […] For ELISA analysis of phosphorylated PDGFRβ, a DuoSet® IC Phospho-PDGFRβ kit (R&D systems) was used. Cell lysates were also subjected to immunoblot analysis with primary antibodies against downstream signaling partners: phospho-Ser473-AKT, phospho-Thr308-AKT, phospho-Tyr70-STAT1, STAT1, phospho-Tyr783-PLCγ1, PLCγ1, phospho-Thr202/Tyr204-MAPK3/ERK1 and MAPK3/ERK1 (all from Cell Signaling Technology). […]
A general note: An ELISA detects its analyte on a solid surface through an enzyme-linked reagent.

Assay [2] deals with AKT. Kind of assay: Immunoblot of downstream signaling partner AKT (phospho-Ser473, phospho-Thr308) in patient fibroblasts. The assay is classed as cell-based, human. The settings on record: 0.1 μM imatinib. For orientation: Immunoblotting shows a protein as a band on a membrane.
Method: Cells were either kept at 37° ° C. or incubated overnight at 32° C. Cells were then left untreated or treated with 0.1 μM imatinib (STI571, Selleckchem) for 6 hours. For ELISA analysis of phosphorylated PDGFRβ, a DuoSet® IC Phospho-PDGFRβ kit (R&D systems) was used. Cell lysates were also subjected to immunoblot analysis with primary antibodies against downstream signaling partners: phospho-Ser473-AKT, phospho-Thr308-AKT, phospho-[MUT]-STAT1, STAT1, phospho-[MUT]-PLCγ1, PLCγ1, phospho-Thr202/Tyr204-MAPK3/ERK1 and MAPK3/ERK1 (all from Cell Signaling Technology).
The test system of assay [3] is OPDKD patient. In words: Oral (systemic) imatinib treatment of an OPDKD patient, effect in the eye. In kind it is in vivo, human. As to conditions: systemic imatinib for almost one year, 6 months at maximal recommended dose of 800 mg.

“Also recorded” adds a separate entry of the source.

T1 sequence (P09619 33-1106 N666Y): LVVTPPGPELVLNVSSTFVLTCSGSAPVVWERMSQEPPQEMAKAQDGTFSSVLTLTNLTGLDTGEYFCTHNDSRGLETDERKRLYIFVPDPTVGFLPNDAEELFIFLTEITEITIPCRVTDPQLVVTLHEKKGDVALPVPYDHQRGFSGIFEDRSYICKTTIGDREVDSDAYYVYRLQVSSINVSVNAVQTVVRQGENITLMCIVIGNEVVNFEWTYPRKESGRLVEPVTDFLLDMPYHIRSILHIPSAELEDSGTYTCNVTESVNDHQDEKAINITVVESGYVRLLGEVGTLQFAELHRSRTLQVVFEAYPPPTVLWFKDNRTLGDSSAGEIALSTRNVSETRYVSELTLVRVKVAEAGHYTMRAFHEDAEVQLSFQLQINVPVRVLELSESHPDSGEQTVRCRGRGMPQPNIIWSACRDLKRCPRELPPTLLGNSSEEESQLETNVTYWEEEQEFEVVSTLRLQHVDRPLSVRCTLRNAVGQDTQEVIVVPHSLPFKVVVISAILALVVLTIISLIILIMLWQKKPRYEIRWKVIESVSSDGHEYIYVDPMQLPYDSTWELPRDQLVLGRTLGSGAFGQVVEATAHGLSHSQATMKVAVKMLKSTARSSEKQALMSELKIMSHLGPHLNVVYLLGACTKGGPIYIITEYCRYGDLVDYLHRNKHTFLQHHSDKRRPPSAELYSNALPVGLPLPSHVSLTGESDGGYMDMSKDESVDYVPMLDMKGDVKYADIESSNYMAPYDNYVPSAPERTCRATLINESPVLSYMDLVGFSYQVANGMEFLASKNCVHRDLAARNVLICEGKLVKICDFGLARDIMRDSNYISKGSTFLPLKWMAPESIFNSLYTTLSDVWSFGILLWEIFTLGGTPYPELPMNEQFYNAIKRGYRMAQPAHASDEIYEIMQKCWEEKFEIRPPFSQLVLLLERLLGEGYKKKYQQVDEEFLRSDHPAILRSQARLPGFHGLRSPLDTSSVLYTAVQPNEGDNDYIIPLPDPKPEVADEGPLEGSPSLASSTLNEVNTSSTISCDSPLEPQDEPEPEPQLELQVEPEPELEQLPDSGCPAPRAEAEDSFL

For the compound `Cc1ccc(NC(=O)c2ccc(CN3CCN(C)CC3)cc2)cc1Nc1nccc(-c2cccnc2)n1` [imatinib], in assay [1] (OPDKD (N666Y) vs Penttinen (N666S) fibroblasts), the “sensitivity of OPDKD fibroblasts compared with Penttinen fibroblasts” value is reported as “less sensitive”. For the same compound, the “effect on levels of P-PDGFRβ and downstream proteins” value in assay [1] (OPDKD fibroblasts, imatinib, 6 hours) is “clear, dose dependent effect”. Besides, in assay [1] (patient fibroblasts, high doses of imatinib (1 μM)), the “levels of phosphorylated PDGFRβ” value is “normalization”. Moreover, the “phosphorylation of Ser473 and Thr308 AKT” value in assay [2] was “Normalization”. Moreover, the “effect of the drug on the eye of an OPDKD patient” value in assay [3] is reported as “no effect; also recorded: without effect”.
